Assay results taken from patent publication US11008337B2, “Chiral diaryl macrocycles as modulators of protein kinases” (Turning Point Therapeutics, Inc., priority 2015, dated 2021).

How the values were obtained:
Assay type in all cases: cell-based
[1] = molecular target: T1, CD74-ROS1 Ba/F3 (Homo sapiens, UniProt P08922); assay: Cell proliferation assay, CD74-ROS1 Ba/F3 stable cell line (CellTiter-Glo); details: Ba/F3-CD74-ROS1 wild type cells, 72 hours compound incubation; read-out: Cell Proliferation IC50 CD74-ROS1 Ba/F3
T1 construct: fused on or other part: P04233 (HLA class II histocompatibility antigen gamma chain)
Excerpt: (§1) Creation of CD74-ROS1 and EML4-ALK Ba/F3 Stable Cell Lines and Cell Proliferation Assays.
(§2) The CD74-ROS1 wild-type gene and EML4-ALK wild-type gene (variant 1) were synthesized at GenScript and cloned into pCDH-CMV-MCS-EF1-Puro plasmid (System Biosciences, Inc). Ba/F3-CD74-ROS1 and Ba/F3-EML4-ALK wild type cell lines were generated by infecting Ba/F3 cells with lentivirus containing CD74-ROS1 wide-type and EML4-ALK wild type. Stable cell lines were selected by puromycin treatment, followed by IL-3 withdrawal. 3000 cells were seeded in 384 well white plate overnight before compound treatment. Cell proliferation was measured using CellTiter-Glo luciferase-based ATP detection assay (Promega) following the manufactures's protocol after 72 hours of various concentration of compound incubation. IC50 determinations were performed using GraphPad Prism software (GraphPad, Inc., San Diego, Calif.).

[2] = molecular target: T2, EML4-ALK Ba/F3 (Homo sapiens, UniProt Q9UM73); assay: Cell proliferation assay, EML4-ALK Ba/F3 stable cell line (CellTiter-Glo); details: Ba/F3-EML4-ALK wild type (variant 1) cells, 72 hours compound incubation; read-out: Cell Proliferation IC50 EML4-ALK Ba/F3
T2 construct: fused on or other part: Q9HC35 (Echinoderm microtubule-associated protein-like 4)
Excerpt: as §1, §2

[3] = tested on: T cell lymphoma Karpas-299 cell line (harboring endogenous NPM-ALK fusion gene); assay: Cell proliferation assay, Karpas-299 cells (CellTiter-Glo); details: Homo sapiens, 72 hours incubation
Method: (§3) Cell Proliferation Assays.
(§4) Colorectal cell lines KM 12 (harboring endogenous TPM3-TRKA fusion gene) cells were cultured in DMEM medium, supplemented with 10% fetal bovine serum and 100 U/mL of penicillin/streptomycin. 5000 cells were seeded in 384 well white plate for 24 hours before compounds treatment. Cell proliferation was measured using CellTiter-Glo luciferase-based ATP detection assay (Promega) following the manufactures's protocol after 72 hours incubation. IC50 determinations were performed using GraphPad Prism software (GraphPad, Inc., San Diego, Calif.). Alternatively, essential thrombocythemia cell line SET-2 cells (harboring endogenous JAK2 V618F point mutation) or T cell lymphoma Karpas-299 cell line (harboring endogenous NPM-ALK fusion gene) were cultured in RPMI medium, supplemented with 10% fetal bovine serum and 100 U/mL of penicillin/streptomycin. 5000 cells were seeded in 384 well white plate for 24 hours before compounds treatment. Cell proliferation was measured using CellTiter-Glo luciferase-based ATP detection assay (Promega) following the manufactures's protocol after 72 hours incubation. IC50 determinations were performed using GraphPad Prism software (GraphPad, Inc., San Diego, Calif.).

[4] = tested on: Colorectal cell lines KM 12 (harboring endogenous TPM3-TRKA fusion gene); assay: Cell proliferation assay, KM12 cells (CellTiter-Glo); details: Homo sapiens, 72 hours incubation
Method: as §3
as §4, with “Alternatively, essential thrombocythemia cell line SET-2 cells (harboring endogenous JAK2 V618F point mutation) or T cell lymphoma Karpas-299 cell line (harboring endogenous NPM-ALK fusion gene) were cultured in RPMI medium, supplemented with 10% fetal bovine serum and 100 U/mL of penicillin/streptomycin.” left out

[5] = tested on: essential thrombocythemia cell line SET-2 cells (harboring endogenous JAK2 point mutation); assay: Cell proliferation assay, SET-2 cells (CellTiter-Glo); details: Homo sapiens, 72 hours incubation, read-out: Cell Proliferation IC50 SET2
Method: as §3, §4

T1 sequence (P08922 whole entry, change not shown, the tested form may be a part): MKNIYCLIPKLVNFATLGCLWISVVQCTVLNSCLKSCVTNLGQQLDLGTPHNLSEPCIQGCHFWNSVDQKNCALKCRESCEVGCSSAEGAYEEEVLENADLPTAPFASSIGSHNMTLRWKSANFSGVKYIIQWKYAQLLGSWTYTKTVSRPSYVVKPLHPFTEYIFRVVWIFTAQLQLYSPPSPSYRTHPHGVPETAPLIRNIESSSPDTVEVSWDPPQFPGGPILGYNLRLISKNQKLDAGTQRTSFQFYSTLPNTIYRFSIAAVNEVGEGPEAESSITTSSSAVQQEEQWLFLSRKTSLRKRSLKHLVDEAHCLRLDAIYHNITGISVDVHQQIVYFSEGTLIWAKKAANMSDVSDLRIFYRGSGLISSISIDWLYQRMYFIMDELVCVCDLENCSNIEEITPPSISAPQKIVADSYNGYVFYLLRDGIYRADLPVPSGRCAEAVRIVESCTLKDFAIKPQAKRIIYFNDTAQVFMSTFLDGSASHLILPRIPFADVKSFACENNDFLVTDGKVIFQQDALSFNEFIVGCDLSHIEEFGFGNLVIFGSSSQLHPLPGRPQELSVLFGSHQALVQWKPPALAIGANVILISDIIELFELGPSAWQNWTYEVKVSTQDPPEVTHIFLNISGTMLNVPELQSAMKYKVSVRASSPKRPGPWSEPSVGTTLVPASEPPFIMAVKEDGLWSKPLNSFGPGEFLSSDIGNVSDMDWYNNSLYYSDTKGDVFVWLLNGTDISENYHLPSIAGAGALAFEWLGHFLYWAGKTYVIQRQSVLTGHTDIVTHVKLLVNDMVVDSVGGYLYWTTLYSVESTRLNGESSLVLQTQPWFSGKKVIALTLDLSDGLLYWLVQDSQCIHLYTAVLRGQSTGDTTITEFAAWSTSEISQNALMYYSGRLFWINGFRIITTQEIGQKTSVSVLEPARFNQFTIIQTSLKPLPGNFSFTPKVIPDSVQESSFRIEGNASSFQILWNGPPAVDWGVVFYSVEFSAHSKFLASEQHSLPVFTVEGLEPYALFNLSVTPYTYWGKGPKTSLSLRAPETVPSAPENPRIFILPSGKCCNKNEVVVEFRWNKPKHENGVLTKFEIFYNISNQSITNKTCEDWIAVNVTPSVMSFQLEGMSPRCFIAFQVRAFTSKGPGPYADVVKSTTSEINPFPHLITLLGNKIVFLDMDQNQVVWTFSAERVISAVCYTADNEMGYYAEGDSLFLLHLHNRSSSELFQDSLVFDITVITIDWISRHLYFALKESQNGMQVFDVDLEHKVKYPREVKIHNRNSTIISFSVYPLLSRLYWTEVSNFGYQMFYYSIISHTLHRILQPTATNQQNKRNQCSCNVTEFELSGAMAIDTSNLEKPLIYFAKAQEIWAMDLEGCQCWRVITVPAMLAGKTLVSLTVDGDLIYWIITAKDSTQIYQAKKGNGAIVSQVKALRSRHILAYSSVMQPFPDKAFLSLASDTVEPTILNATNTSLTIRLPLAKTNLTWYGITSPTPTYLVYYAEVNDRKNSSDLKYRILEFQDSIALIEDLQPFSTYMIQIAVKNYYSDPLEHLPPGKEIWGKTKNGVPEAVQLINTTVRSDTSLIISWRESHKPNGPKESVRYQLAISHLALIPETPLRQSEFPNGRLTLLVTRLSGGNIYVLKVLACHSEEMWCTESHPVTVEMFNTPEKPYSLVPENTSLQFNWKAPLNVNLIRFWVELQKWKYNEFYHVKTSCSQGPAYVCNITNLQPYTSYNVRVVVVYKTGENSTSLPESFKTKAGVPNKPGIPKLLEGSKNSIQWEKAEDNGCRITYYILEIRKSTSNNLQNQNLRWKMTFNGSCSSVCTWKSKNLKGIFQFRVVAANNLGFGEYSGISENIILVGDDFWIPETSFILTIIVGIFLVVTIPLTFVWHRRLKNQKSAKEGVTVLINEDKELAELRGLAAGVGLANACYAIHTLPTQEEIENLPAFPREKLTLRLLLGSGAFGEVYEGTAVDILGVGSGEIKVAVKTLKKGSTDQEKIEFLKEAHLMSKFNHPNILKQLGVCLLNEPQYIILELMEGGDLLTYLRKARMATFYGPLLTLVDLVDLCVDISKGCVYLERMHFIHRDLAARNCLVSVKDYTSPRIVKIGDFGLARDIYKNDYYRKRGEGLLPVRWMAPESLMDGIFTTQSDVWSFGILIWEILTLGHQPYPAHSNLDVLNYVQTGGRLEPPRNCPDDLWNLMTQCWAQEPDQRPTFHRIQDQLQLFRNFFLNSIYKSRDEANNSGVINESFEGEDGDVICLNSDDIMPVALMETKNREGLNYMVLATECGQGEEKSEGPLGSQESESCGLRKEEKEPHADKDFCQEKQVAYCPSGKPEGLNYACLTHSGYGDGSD
T2 sequence (Q9UM73 whole entry, change not shown, the tested form may be a part): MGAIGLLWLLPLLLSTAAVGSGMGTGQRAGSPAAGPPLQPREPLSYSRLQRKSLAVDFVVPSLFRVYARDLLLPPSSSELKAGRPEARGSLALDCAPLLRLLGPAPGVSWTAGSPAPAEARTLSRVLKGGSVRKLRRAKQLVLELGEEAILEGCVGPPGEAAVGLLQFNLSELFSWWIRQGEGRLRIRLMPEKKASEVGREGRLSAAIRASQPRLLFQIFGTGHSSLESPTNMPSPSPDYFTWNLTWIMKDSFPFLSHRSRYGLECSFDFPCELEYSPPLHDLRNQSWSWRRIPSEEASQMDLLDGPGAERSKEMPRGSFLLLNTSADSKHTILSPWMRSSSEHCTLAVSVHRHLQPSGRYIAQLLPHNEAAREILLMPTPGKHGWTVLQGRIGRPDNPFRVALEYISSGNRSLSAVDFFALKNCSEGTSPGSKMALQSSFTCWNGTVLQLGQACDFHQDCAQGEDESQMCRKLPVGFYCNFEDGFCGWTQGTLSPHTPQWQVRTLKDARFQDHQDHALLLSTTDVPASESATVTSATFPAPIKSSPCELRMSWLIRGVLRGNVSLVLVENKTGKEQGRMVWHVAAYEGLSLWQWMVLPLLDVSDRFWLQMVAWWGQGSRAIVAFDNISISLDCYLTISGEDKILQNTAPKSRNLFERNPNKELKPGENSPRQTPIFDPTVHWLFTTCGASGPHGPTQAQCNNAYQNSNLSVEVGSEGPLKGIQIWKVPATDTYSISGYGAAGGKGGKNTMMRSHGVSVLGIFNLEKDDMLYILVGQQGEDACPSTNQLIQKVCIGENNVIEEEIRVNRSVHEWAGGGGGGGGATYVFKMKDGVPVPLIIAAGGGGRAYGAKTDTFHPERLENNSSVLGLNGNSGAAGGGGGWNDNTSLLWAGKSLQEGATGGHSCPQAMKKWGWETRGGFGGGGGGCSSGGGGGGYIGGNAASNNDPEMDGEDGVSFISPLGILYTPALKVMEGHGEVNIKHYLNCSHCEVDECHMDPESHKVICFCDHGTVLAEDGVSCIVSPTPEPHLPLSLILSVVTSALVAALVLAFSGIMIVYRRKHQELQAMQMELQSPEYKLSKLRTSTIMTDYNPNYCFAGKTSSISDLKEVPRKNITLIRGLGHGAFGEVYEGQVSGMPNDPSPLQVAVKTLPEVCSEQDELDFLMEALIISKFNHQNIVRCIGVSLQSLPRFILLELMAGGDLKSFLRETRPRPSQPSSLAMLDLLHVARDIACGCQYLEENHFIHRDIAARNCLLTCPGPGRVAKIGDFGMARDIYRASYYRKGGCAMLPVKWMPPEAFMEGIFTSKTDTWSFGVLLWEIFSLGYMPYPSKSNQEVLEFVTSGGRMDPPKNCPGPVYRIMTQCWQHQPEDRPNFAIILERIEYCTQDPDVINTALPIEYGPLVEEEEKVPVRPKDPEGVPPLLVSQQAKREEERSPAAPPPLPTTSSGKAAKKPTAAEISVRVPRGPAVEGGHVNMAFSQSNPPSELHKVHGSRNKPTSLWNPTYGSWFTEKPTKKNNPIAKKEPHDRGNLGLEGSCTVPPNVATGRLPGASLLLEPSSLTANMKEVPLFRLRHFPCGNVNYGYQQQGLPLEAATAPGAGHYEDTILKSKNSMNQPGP

| GI50 [1] | GI50 [2] | IC50 [3] | SMILES | IC50 [4] | IC50 [5] |
| --- | --- | --- | --- | --- | --- |
| 0.2 nM | 13.4 nM | 16.7 nM | CC[C@@H]1CNC(=O)c2cnn3ccc(nc23)N[C@H](C)c2cc(F)ccc2O1 [Compound 1, (7R,13R)-7-ethyl-11-fluoro-13-methyl-6,7,13,14-tetrahydro-1,15-ethenopyrazolo[4,3-f][1,4,8,10]benzoxatriazacyclotridecin-4(5H)-one] | 0.2 nM | 67.6 nM |
| 0.7 nM | 681 nM | 354 nM | CC[C@@H]1COc2ccc(F)cc2[C@@H](C)Nc2ccn3ncc(c3n2)C(=O)N1 [Compound 2, (6R,13R)-6-ethyl-11-fluoro-13-methyl-6,7,13,14-tetrahydro-1,15-ethenopyrazolo[4,3-f][1,4,8,10]benzoxatriazacyclotridecin-4(5H)-one] | 6 nM | 956 nM |
| 5.1 nM | 459 nM | – | O=C1NCCOc2ccc(F)cc2[C@@H](CCF)Nc2ccn3ncc1c3n2 [Compound 23, (13R)-11-fluoro-13-(2-fluoroethyl)-6,7,13,14-tetrahydro-1,15-ethenopyrazolo[4,3-f][1,4,8,10]benzoxatriazacyclotridecin-4(5H)-one] | 1.3 nM | 236 nM |
| – | 88.5 nM | 166 nM | COC[C@@H]1CNC(=O)c2cnn3ccc(nc23)N[C@H](C)c2cc(F)ccc2O1 [Compound 25, (7S,13R)-11-fluoro-7-(methoxymethyl)-13-methyl-6,7,13,14-tetrahydro-1,15-ethenopyrazolo[4,3-f][1,4,8,10]benzoxatriazacyclotridecin-4(5H)-one] | 6.1 nM | 134 nM |
| – | 3000 nM | – | C[C@H]1Nc2ccn3ncc(c3n2)C(=O)N[C@H]2CCCC[C@@H]2Oc2ccc(F)cc21 [Compound 44, (4aS,10R,18aS)-8-fluoro-10-methyl-2,3,4,4a,10,11,18,18a-octahydro-12,14-ethenodibenzo[b,l]pyrazolo[4,3-f][1,4,8,10]oxatriazacyclotridecin-17(1H)-one] | 56 nM | 1800 nM |
| – | > 10000 nM | – | C[C@H]1Nc2ccn3ncc(c3n2)C(=O)N[C@@H]2CCCC[C@H]2Oc2ccc(F)cc21 [Compound 45, (4aR,10R,18aR)-8-fluoro-10-methyl-2,3,4,4a,10,11,18,18a-octahydro-12,14-ethenodibenzo[b,l]pyrazolo[4,3-f][1,4,8,10]oxatriazacyclotridecin-17(1H)-one] | 0.4 nM | 206 nM |
| – | 2000 nM | – | C[C@H]1Nc2ccn3ncc(c3n2)C(=O)N[C@H]2CCC[C@@H]2Oc2ccc(F)cc21 [Compound 46, (3aS,9R,17aS)-7-fluoro-9-methyl-1,2,3,3a,9,10,17,17a-octahydro-16H-11,13-ethenocyclopenta[b]pyrazolo[4,3-f][1,4,8,10]benzoxatriazacyclotridecin-16-one] | 11 nM | 400 nM |
| – | 504 nM | – | C[C@H]1Nc2ccn3ncc(c3n2)C(=O)N[C@@H]2CCCC[C@@H]2Oc2ccc(F)cc21 [Compound 47, (4aS,10R,18aR)-8-fluoro-10-methyl-2,3,4,4a,10,11,18,18a-octahydro-12,14-ethenodibenzo[b,l]pyrazolo[4,3-f][1,4,8,10]oxatriazacyclotridecin-17(1H)-one] | 6 nM | 127 nM |
| – | 5000 nM | – | C[C@H]1Nc2ccn3ncc(c3n2)C(=O)N[C@H]2CNC[C@H]2Oc2ccc(F)cc21 [Compound 48, (3aR,9R,17aS)-7-fluoro-9-methyl-1,2,3,3a,9,10,17,17a-octahydro-16H-11,13-ethenopyrazolo[4,3-f]pyrrolo[3,4-b][1,4,8,10]benzoxatriazacyclotridecin-16-one] | > 10000 nM | > 10000 nM |
| – | 1480 nM | – | C[C@H]1Nc2ccn3ncc(c3n2)C(=O)N2CCC[C@H](C2)Oc2ccc(F)cc21 [Compound 52, (9R,15R)-13-fluoro-15-methyl-6,7,8,9,15,16-hexahydro-4H-1,17-etheno-5,9-methanopyrazolo[4,3-h][1,6,10,12]benzoxatriazacyclopentadecin-4-one] | 8.7 nM | 768 nM |
| – | 3000 nM | – | C[C@H]1Nc2ccn3ncc(c3n2)C(=O)N2CCC[C@@H](C2)Oc2ccc(F)cc21 [Compound 53, (9S,15R)-13-fluoro-15-methyl-6,7,8,9,15,16-hexahydro-4H-1,17-etheno-5,9-methanopyrazolo[4,3-h][1,6,10,12]benzoxatriazacyclopentadecin-4-one] | 37.3 nM | 505 nM |
| – | > 10000 nM | – | C[C@H]1Nc2ccn3ncc(c3n2)C(=O)N2CCC(CC2)Oc2ccc(F)cc21 [Compound 54] | 464 nM | > 10000 nM |
| – | 709 nM | – | C[C@H]1Nc2ccn3ncc(c3n2)C(=O)NC[C@@H](CN(C)C)Oc2ccc(F)cc21 [Compound 55, (7S,13R)-7-[(dimethylamino)methyl]-11-fluoro-13-methyl-6,7,13,14-tetrahydro-1,15-ethenopyrazolo[4,3-f][1,4,8,10]benzoxatriazacyclotridecin-4(5H)-one] | 23.5 nM | 300 nM |
| – | 665 nM | – | C[C@H]1Nc2ccn3ncc(c3n2)C(=O)NC[C@@H](CN2CCCC2)Oc2ccc(F)cc21 [Compound 57, (7S,13R)-11-fluoro-13-methyl-7-[(pyrrolidin-1-yl)methyl]-6,7,13,14-tetrahydro-1,15-ethenopyrazolo[4,3-f][1,4,8,10]benzoxatriazacyclotridecin-4(5H)-one] | 70 nM | 132 nM |
| – | 31 nM | – | CC[C@@H]1CNC(=O)c2cnn3ccc(nc23)N[C@H](C)c2cc(F)cnc2O1 [Compound 58, (7R,13R)-7-ethyl-11-fluoro-13-methyl-6,7,13,14-tetrahydro-1,15-ethenopyrazolo[4,3-f]pyrido[3,2-l][1,4,8,10]oxatriazacyclotridecin-4(5H)-one] | 0.2 nM | 174 nM |
| – | 2000 nM | – | C[C@@H]1Nc2ccn3ncc(c3n2)C(=O)NC[C@H](C)Oc2ncc(F)cc21 [Compound 59, (7S,13S)-11-fluoro-7,13-dimethyl-6,7,13,14-tetrahydro-1,15-ethenopyrazolo[4,3-f]pyrido[3,2-l][1,4,8,10]oxatriazacyclotridecin-4(5H)-one] | 5.5 nM | 402 nM |
| – | 218 nM | – | C[C@H]1CNC(=O)c2cnn3ccc(nc23)N[C@H](C)c2cc(F)cnc2O1 [Compound 60, (7S,13R)-11-fluoro-7,13-dimethyl-6,7,13,14-tetrahydro-1,15-ethenopyrazolo[4,3-f]pyrido[3,2-l][1,4,8,10]oxatriazacyclotridecin-4(5H)-one] | 0.35 nM | 30.3 nM |
| – | 8000 nM | – | CNC(=O)C1Nc2ccn3ncc(c3n2)C(=O)NC[C@H](C)Oc2ccc(F)cc21 (stereo partly drawn) [Compound 61, (7S)-11-fluoro-N,7-dimethyl-4-oxo-4,5,6,7,13,14-hexahydro-1,15-ethenopyrazolo[4,3-f][1,4,8,10]benzoxatriazacyclotridecine-13-carboxamide] | 73.7 nM | 1070 nM |
| – | 3000 nM | – | C[C@H]1CNC(=O)c2cnn3ccc(nc23)NC(C(=O)N(C)C)c2cc(F)ccc2O1 (stereo partly drawn) [Compound 62, (7S)-11-fluoro-N,N,7-trimethyl-4-oxo-4,5,6,7,13,14-hexahydro-1,15-ethenopyrazolo[4,3-f][1,4,8,10]benzoxatriazacyclotridecine-13-carboxamide] | 112 nM | 3570 nM |
